The record followed here is patent publication US9226503B2, “Composition and method for attraction of emerald ash borer Agrilus planipennis fairmaire (coleoptera: buprestidae)” (Her Majesty the Queen in Right of Canada, as represented by …, priority 2011, dated 2016).

The test system of test [1] is A. planipennis. Nature of the test: Field trapping experiment 3 (2010), green sticky prism traps, Ontario and Michigan. It is filed as in vivo, Agrilus planipennis. Conditions: lactone alone. The protocol:
Field trapping. Three trapping experiments were carried out in green ash plantations (F. pennsylvanica Marsch) with low-to-moderate A. planipennis populations about 40 km southeast of Sarnia, Ontario (42° 58′ 0 N, 82° 24′ 0 W) in 2008, 2009 and 2010. Trees at these sites were generally healthy in appearance with low or no signs of decline, and only a small number of trees had obvious signs/symptoms of infestation by A. planipennis. In Ontario sites, trees were 20-25 years old, 4-6 m tall, 10-15 cm in diameter, and spaced about 2 m apart within a row and 2.5 m between rows. In 2010, the trapping experiment was replicated at four sites in Michigan, USA, in addition to the sites in Ontario. Sites in Michigan were 10-100 years old, 10-30 m tall, 15-70 cm in diameter, and located in a mixed woodlot. […] Traps were checked every 2 weeks and A. planipennis were collected, counted and sexed. […]
The effect of each attractant on mean catch of female and male A. planipennis was analyzed independently using ANOVA and a randomized complete block design. Sites were analyzed separately in 2009 due to differences in sex ratios. In 2010, sites in Ontario were analyzed separately from those in Michigan due to the considerable differences in stand conditions and height of traps with respect to the ash canopy. […]

The test system of test [2] is A. planipennis. Nature of the test: Two-choice Y-tube olfactometer assay. To be noted: males; lactone 10 μg, (3Z)-hexenol 5 μg; chi-square test. It is filed as in vivo, Agrilus planipennis. The protocol:
A Y-tube olfactometer (Analytical Research Systems Inc, Gainsville, Fla.) was used to test for attraction of A. planipennis to lactone isomers and host volatiles. […] Each arm was connected to a cylinder that contained the stimulus. Charcoal filtered air was passed into each arm at a flow rate of 1.2 L/min. Treatments included the pheromone alone: (3Z)-lactone (10 μg); (3E)-lactone (10 μg); and 60:40 (3E):(3Z)-lactone (10 μg). Next, we tested bark sesquiterpenes and a green leaf volatile alone: Phoebe oil (25 μg and 2.5 μg) and (3Z)-hexenol (5 μg). We then tested the pheromone combined with bark sesquiterpenes: (3Z)-lactone (10 μg)+Phoebe oil (at both 25 μg and 2.5 μg); (3E)-lactone (10 μg)+Phoebe oil (at both 25 μg and 2.5 μg). Finally, we tested the pheromone combined with the green leaf volatile: (3Z)-lactone (10 μg)+(3Z)-hexenol (5 μg); and (3E)-lactone (10 μg)+(3Z)-hexenol (5 μg). Each stimulus (l μl for single compound treatments and a total of 2 μl for two-compound treatments) was diluted in hexane, placed on a strip of filter paper and given one minute for the solvent to evaporate before being placed in the olfactometer. A second filter paper, treated with the equivalent volume of solvent was placed in the other arm of the olfactometer to serve as the control. The apparatus was rinsed with acetone after each treatment, and the arm attached to the test stimulus was randomized between replicates.
For each treatment, we tested increasing numbers of adults until we obtained a minimum of 12 beetles responding to the stimuli (either positively or negatively). To obtain this minimum, we tested 15-54 beetles per treatment. For each trial, a single A. planipennis (mature virgin male or female, >10 days old) was given ten minutes to choose between the two stimuli; adults were used only once in the bioassay. […] A chi-square test was conducted for each independent trial.

Each structure is given as a SMILES string.

As to `O=C1C/C=C/CCCCCCCCO1` [(3E)-lactone, (3E)-dodecen-12-olide], the “trap catch compared to unbaited control” value with A. planipennis [1] (green traps, 2010, Ontario and Michigan) is recorded as “did not affect trap catch”. In addition, the “attraction of males in Y-tube olfactometer vs hexane control” value in the test with A. planipennis [2] was “significantly attracted”.

As to `O=C1C/C=C\CCCCCCCCO1` [(3Z)-lactone, (3Z)-dodecen-12-olide], the “trap captures compared to unbaited control, sites in Ontario” value with A. planipennis [1] (green traps in the canopy, Ontario, P<0.02) is listed as “slight increase in trap captures”. Besides, the “attraction of males in Y-tube olfactometer vs hexane control” value with A. planipennis [2] is listed as “not”.
